Laboratory results: patent US20110195116A1, “RATE MODULATED DELIVERY OF DRUGS FROM A COMPOSITE DELIVERY SYSTEM” (ADCOCK INGRAM HEALTHCARE PTY LIMITED, priority 2008, published 2011)
Where a name gives a salt, the structure may show the parent alone. Read-outs that look alike come from different tables or passages of the source.

Legend:
[1] = in vivo; cited from earlier work
[2] = cited from earlier work
[3] = dissolution study, USP paddle, phosphate buffer pH 6.8; assay type: physicochemical
Procedure: Initial dissolution characteristics of the combined APIs paracetamol, tramadol hydrochloride and diclofenac potassium; individual and combined cellulose and ethylene oxide-based polymers were determined by producing experimental batches of tablets. These were produced on a Manesty Single Punch Type F3 machine by direct compression and wet granulation techniques into monolithic matrix and multi-layered systems, as shown in FIG. 1. In situ crosslinking of various alginate, pectin and eudragit polymers with salts such as zinc gluconate was also investigated for an influence on the release characteristics of the solid dosage system.
(§1) Dissolution studies were conducted using a USP rotating paddle method (Hanson Virtual Instruments SR8 Plus Dissolution Test Stations) at 50 rpm in phosphate buffer pH 6.8 (900 mL, 37° C.±0.5° C.) for each formulation employing an autosampler (Hanson Research Auto Plus Maximiser and AutoPlus™ MultiFill™). Samples of 1.6 mL were withdrawn over a period of 12 to 20 hours and analysed via HPLC. Release profiles in simulated gastric fluid pH 1.2 without pepsin over a period of four hours were determined to identify any site-specific release induced by the polymers. The dissolution studies were performed under the conditions described in Table 1.

[4] = dissolution study, USP paddle, simulated gastric fluid pH 1.2 without pepsin; assay type: physicochemical; conditions: cellulose, polyethylene oxide and alginate polymer formulations
Procedure: as §1
The alginate and zinc gluconate addition was then included in a formulation where the HEC and HPC had been further reduced to 45.31 mg and 90.6 mg respectively (FIG. 16).
In order to establish the potential site-specific release potential of the polymeric dosage form, formulations consisting of cellulose, polyethylene oxide and alginate polymers were subjected to dissolution studies in simulated gastric fluid pH 1.2 without pepsin.

[5] = dosage form with pectin, alginate and eudragit polymers crosslinked with metallic salts

COc1cccc(C2(O)CCCCC2CN(C)C)c1 (stereo not drawn) [Tramadol]
elimination half-life (t1/2) [1]: 6 h

O=C(O)Cc1ccccc1Nc1c(Cl)cccc1Cl [Diclofenac]
water solubility ([2]; at pH 6.8): 0.187%

COc1cccc(C2(O)CCCCC2CN(C)C)c1 (stereo not drawn) [tramadol hydrochloride]
release kinetics [3, 5]: first-order

CC(=O)Nc1ccc(O)cc1 [Paracetamol]
release kinetics [3, 5]: first-order
water solubility ([2]; at 20° C.): 1.4%

O=C(O)Cc1ccccc1Nc1c(Cl)cccc1Cl [diclofenac potassium]
release kinetics ([3]; cellulose and polyethylene oxide-based formulation compressed as layered dosage form): zero-order
release kinetics ([3]; cellulose and polyethylene oxide-based formulation compressed as monolithic matrix): first-order
release kinetics [3, 5]: zero-order
release in simulated gastric fluid [4]: not released
